pEC50: −log10 of the molar value.
What follows are compounds tested on HT-29 cells (assay: HT29 Cells 0FBS Assay In Vitro (TNF-α/SMAC mimetic/zVAD-FMK induced necroptosis, CellTiter-Glo cell viability)). Details: Homo sapiens, HT-29, 20 h, read-out: Cell activity (EC50) of Compounds 117-281.
Type: cell-based
In short: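 Viability was measured by ATP luminescence (CellTiter-Glo) after 20 h at 37° C of compound exposure in 10-point, 1:3 dilutions. Necroptosis in FBS-free HT-29 cultures was driven by a TNF-α (10 ng/ml), SMAC mimetic (6 μM) and zVAD-FMK (10 μM) cocktail. EC50 values are geometric means from duplicate curves.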
With `CC(=O)Nc1cc(-c2cc(OC3CN(C(=O)N4N=CC[C@H]4c4cc(F)cc(F)c4)C3)c(F)cn2)n(C)n1` [compound 135] the pEC50 was 7.00 to 10.00.

Same assay, conditions: Homo sapiens; HT-29 cells, FBS free medium, TNF-α (10 ng/ml), SMAC mimetic (6 uM), zVAD-FMK (10 μM), 20 hours; geometric mean EC50; read-out: Cell activity (EC50) of Compounds 1-116
In the case of `Cc1noc(C)c1-c1ncc(F)c(OC2CN(C(=O)N3N=CC[C@H]3c3cc(F)cc(F)c3)C2)n1` [compound 20, (S)-(5-(3,5-difluorophenyl)-4,5-dihydro-1H-pyrazol-1-yl)(3-((2-(3,5-dimethylisoxazol-4-yl)-5-fluoropyrimidin-4-yl)oxy)azetidin-1-yl)methanone], the pEC50 was 7.00 to 10.00. With `Cn1ncc(C(=O)N2CCCC2)c1-c1cc(OC2CN(C(=O)N3N=CC[C@H]3c3cc(F)cc(F)c3)C2)c(F)cn1` [compound 75, (S)-(5-(3,5-difluorophenyl)-4,5-dihydro-1H-pyrazol-1-yl)(3-((5-fluoro-2-(1-methyl-4-(pyrrolidine-1-carbonyl)-1H-pyrazol-5-yl)pyridin-4-yl)oxy)azetidin-1-yl)methanone] the pEC50 was 5.00 to 6.00. Compound `Cc1scnc1-c1cc(OC2CN(C(=O)N3N=CC[C@H]3c3cc(F)cc(F)c3)C2)c(F)cn1` [compound 14, (S)-(5-(3,5-difluorophenyl)-4,5-dihydro-1H-pyrazol-1-yl)(3-((5-fluoro-2-(5-methylthiazol-4-yl)pyridin-4-yl)oxy)azetidin-1-yl)methanone] has a pEC50 of 7.00 to 10.00. `Cc1c(N)nn(C)c1-c1cc(OC2CN(C(=O)N3N=CC[C@H]3c3cc(F)cc(F)c3)C2)c(F)cn1` [compound 101, (S)-(3-((2-(3-amino-1,4-dimethyl-11H-pyrazol-5-yl)-5-fluoropyridin-4-yl)oxy)azetidin-1-yl)(5-(3,5-difluorophenyl)-4,5-dihydro-1H-pyrazol-1-yl)methanone] was tested, and the pEC50 was 7.00 to 10.00. `Cc1nccn1-c1ncc(F)c(OC2CN(C(=O)N3N=CC[C@H]3c3cc(F)cc(F)c3)C2)n1` [compound 105, (S)-(5-(3,5-difluorophenyl)-4,5-dihydro-1H-pyrazol-1-yl)(3-((5-fluoro-2-(2-methyl-1H-imidazol-1-yl)pyrimidin-4-yl)oxy)azetidin-1-yl)methanone] gave a pEC50 of 7.00 to 10.00. Work on `CNC(=O)c1cnn(C)c1-c1cc(OC2CN(C(=O)N3N=CC[C@H]3c3cc(F)cc(F)c3)C2)c(F)cn1` [compound 67, (S)-5-(4-((1-(5-(3,5-difluorophenyl)-4,5-dihydro-1H-pyrazole-1-carbonyl)azetidin-3-yl)oxy)-5-fluoropyridin-2-yl)-N,1-dimethyl-1H-pyrazole-4-carboxamide] yielded a pEC50 of 7.00 to 10.00. `COCCNc1cnn(C)c1-c1cc(OC2CN(C(=O)N3N=CC[C@H]3c3cc(F)cc(F)c3)C2)c(F)cn1` [compound 56, (S)-(5-(3,5-difluorophenyl)-4,5-dihydro-1H-pyrazol-1-yl)(3-((5-fluoro-2-(4-((2-methoxyethyl)amino)-1-methyl-1H-pyrazol-5-yl)pyridin-4-yl)oxy)azetidin-1-yl)methanone] showed a pEC50 of 7.00 to 10.00. Compound `Cc1cc(-c2cc(OC3CN(C(=O)N4N=CC[C@H]4c4cc(F)cc(F)c4)C3)c(F)cn2)n(C)n1` [compound 36, (S)-(5-(3,5-difluorophenyl)-4,5-dihydro-1H-pyrazol-1-yl)(3-((2-(1,3-dimethyl-1H-pyrazol-5-yl)-5-fluoropyridin-4-yl)oxy)azetidin-1-yl)methanone] has a pEC50 of 7.00 to 10.00. With `Cn1ncnc1-c1cc(OC2CN(C(=O)N3N=CC[C@H]3c3cc(F)cc(F)c3)C2)c(F)cn1` [compound 29, (S)-(5-(3,5-difluorophenyl)-4,5-dihydro-1H-pyrazol-1-yl)(3-((5-fluoro-2-(1-methyl-1H-1,2,4-triazol-5-yl)pyridin-4-yl)oxy)azetidin-1-yl)methanone] the pEC50 was 7.00 to 10.00. In the case of `NC(=O)Cn1ccc(-c2ncc(F)c(OC3CN(C(=O)N4N=CC[C@H]4c4cc(F)cc(F)c4)C3)n2)n1` [compound 89, (S)-2-(3-(4-((1-(5-(3,5-difluorophenyl)-4,5-dihydro-1H-pyrazole-1-carbonyl)azetidin-3-yl)oxy)-5-fluoropyrimidin-2-yl)-1H-pyrazol-1-yl)acetamide], the pEC50 was 6.00 to 7.00. In the case of `Cc1nnc(-c2ccc(F)c(OC3CN(C(=O)N4N=CCC4c4cc(F)cc(F)c4)C3)n2)o1` (stereo not drawn) [compound 27, (5-(3,5-difluorophenyl)-4,5-dihydro-1H-pyrazol-1-yl)(3-((3-fluoro-6-(5-methyl-1,3,4-oxadiazol-2-yl)pyridin-2-yl)oxy)azetidin-1-yl)methanone], the pEC50 was 6.00 to 7.00. Compound `Cn1ncc(C(N)=O)c1-c1ccc(F)c(OC2CN(C(=O)N3N=CCC3c3cc(F)cc(F)c3)C2)c1` (stereo not drawn) [compound 115] has a pEC50 of 7.00 to 10.00.

Same assay, conditions: Homo sapiens; HT-29 cells, FBS free medium, TNF-α (10 ng/ml), SMAC mimetic (6 uM), zVAD-FMK (10 μM), 20 hours; geometric mean EC50; read-out: Cell activity (EC50) of Compounds 117-281
In the case of `Cc1nc(C(N)=O)c(C)n1-c1cc(OC2CN(C(=O)N3N=CC[C@H]3c3cc(F)cc(F)c3)C2)c(F)cn1` [compound 200, (S)-1-(4-((1-(5-(3,5-difluorophenyl)-4,5-dihydro-1H-pyrazole-1-carbonyl)azetidin-3-yl)oxy)-5-fluoropyridin-2-yl)-2,5-dimethyl-1H-imidazole-4-carboxamide], the pEC50 was 7.00 to 10.00. `Cc1nn(-c2cc(OC3CN(C(=O)N4N=CC[C@H]4c4cc(F)cc(F)c4)C3)c(F)cn2)c(C)c1S(=O)(=O)Cc1ccccc1` [compound 236, (S)-(3-((2-(4-(benzylsulfonyl)-3,5-dimethyl-1H-pyrazol-1-yl)-5-fluoropyridin-4-yl)oxy)azetidin-1-yl)(5-(3,5-difluorophenyl)-4,5-dihydro-1H-pyrazol-1-yl)methanone] gave a pEC50 of 7.00 to 10.00. Work on `Cc1c(N)nn(C)c1-c1ccc(F)c(OC2CN(C(=O)N3N=CC[C@H]3c3cc(F)cc(F)c3)C2)n1` [compound 215, (S)-(3-((6-(3-amino-1,4-dimethyl-1H-pyrazol-5-yl)-3-fluoropyridin-2-yl)oxy)azetidin-1-yl)(5-(3,5-difluorophenyl)-4,5-dihydro-1H-pyrazol-1-yl)methanone] yielded a pEC50 of 7.00 to 10.00. With `CC(=O)N(C(C)=O)c1cc(-c2cc(OC3CN(C(=O)N4N=CC[C@H]4c4cc(F)cc(F)c4)C3)c(F)cn2)n(C)n1` [compound 136, (S)—N-acetyl-N-(5-(4-((1-(5-(3,5-difluorophenyl)-4,5-dihydro-1H-pyrazole-1-carbonyl)azetidin-3-yl)oxy)-5-fluoropyridin-2-yl)-1-methyl-1H-pyrazol-3-yl)acetamide] the pEC50 was 7.00 to 10.00. `CC(C)NC(=O)c1cnn(C)c1-c1cc(OC2CN(C(=O)N3N=CC[C@H]3c3cc(F)cc(F)c3)C2)c(F)cn1` [compound 133, (S)-5-(4-((1-(5-(3,5-difluorophenyl)-4,5-dihydro-1H-pyrazole-1-carbonyl)azetidin-3-yl)oxy)-5-fluoropyridin-2-yl)-N-isopropyl-1-methyl-1H-pyrazole-4-carboxamide] was tested, and the pEC50 was 7.00 to 10.00. With `Cc1nn(-c2cc(OC3CN(C(=O)N4N=CC[C@H]4c4cc(F)cc(F)c4)C3)c(F)cn2)c(C)c1CC(=O)NCCO` [compound 223, (S)-2-(1-(4-((1-(5-(3,5-difluorophenyl)-4,5-dihydro-1H-pyrazole-1-carbonyl)azetidin-3-yl)oxy)-5-fluoropyridin-2-yl)-3,5-dimethyl-1H-pyrazol-4-yl)-N-(2-hydroxyethyl)acetamide] the pEC50 was 7.00 to 10.00. `Cc1nc(C)n(-c2cc(OC3CN(C(=O)N4N=CC[C@H]4c4cc(F)cc(F)c4)C3)c(F)cn2)c1C` [compound 152, (S)-(5-(3,5-difluorophenyl)-4,5-dihydro-1H-pyrazol-1-yl)(3-((5-fluoro-2-(2,4,5-trimethyl-11H-imidazol-1-yl)pyridin-4-yl)oxy)azetidin-1-yl)methanone] gave a pEC50 of 7.00 to 10.00. In the case of `Cc1c(C(N)=O)cnn1-c1cc(OC2CN(C(=O)N3N=CC[C@H]3c3cc(F)cc(F)c3)C2)c(F)cn1` [compound 273, (S)-1-(4-((1-(5-(3,5-difluorophenyl)-4,5-dihydro-1H-pyrazole-1-carbonyl)azetidin-3-yl)oxy)-5-fluoropyridin-2-yl)-5-methyl-1H-pyrazole-4-carboxamide], the pEC50 was 7.00 to 10.00. Compound `Cc1c(N)nn(C)c1-c1ncc(F)c(OC2CN(C(=O)N3N=CC[C@H]3c3cc(F)cc(F)c3)C2)n1` [compound 207, (S)-(3-((2-(3-amino-1,4-dimethyl-1H-pyrazol-5-yl)-5-fluoropyrimidin-4-yl)oxy)azetidin-1-yl)(5-(3,5-difluorophenyl)-4,5-dihydro-1H-pyrazol-1-yl)methanone] has a pEC50 of 7.00 to 10.00. `Cc1cnc(C)n1-c1cc(OC2CN(C(=O)N3N=CC[C@H]3c3cc(F)cc(F)c3)C2)c(F)cn1` [compound 182, (S)-(5-(3,5-difluorophenyl)-4,5-dihydro-1H-pyrazol-1-yl)(3-((2-(2,5-dimethyl-1H-imidazol-1-yl)-5-fluoropyridin-4-yl)oxy)azetidin-1-yl)methanone] gave a pEC50 of 7.00 to 10.00. Compound `CNC(=O)c1c(C)nn(-c2cc(OC3CN(C(=O)N4N=CC[C@H]4c4cc(F)cc(F)c4)C3)c(F)cn2)c1C` [compound 193, (S)-1-(4-((1-(5-(3,5-difluorophenyl)-4,5-dihydro-1H-pyrazole-1-carbonyl)azetidin-3-yl)oxy)-5-fluoropyridin-2-yl)-N,3,5-trimethyl-1H-pyrazole-4-carboxamide] has a pEC50 of 7.00 to 10.00. In the case of `Cc1nn(-c2cc(OC3CN(C(=O)N4N=CC[C@H]4c4cc(F)cc(F)c4)C3)c(F)cn2)c(C)c1SCc1ccccc1` [compound 227, (S)-(3-((2-(4-(benzylthio)-3,5-dimethyl-1H-pyrazol-1-yl)-5-fluoropyridin-4-yl)oxy)azetidin-1-yl)(5-(3,5-difluorophenyl)-4,5-dihydro-1H-pyrazol-1-yl)methanone], the pEC50 was 7.00 to 10.00. `CNc1cc(-c2cc(OC3CN(C(=O)N4N=CC[C@H]4c4cc(F)cc(F)c4)C3)c(F)cn2)n(C)n1` [compound 154] gave a pEC50 of 7.00 to 10.00. Compound `Cc1nn(-c2cc(OC3CN(C(=O)N4N=CC[C@H]4c4cc(F)cc(F)c4)C3)c(F)cn2)c(C)c1CC(N)=O` [compound 225, (S)-2-(1-(4-((1-(5-(3,5-difluorophenyl)-4,5-dihydro-1H-pyrazole-1-carbonyl)azetidin-3-yl)oxy)-5-fluoropyridin-2-yl)-3,5-dimethyl-1H-pyrazol-4-yl)acetamide] has a pEC50 of 7.00 to 10.00.

Reference: patent US12655125B2 (SIRONAX LTD., priority 2020, dated 2026)
